# Measurements taken from patent US6608069B1, “Phenyl xanthine derivatives” (SmithKline Beecham Corporation, priority 1998, dated 2003).
# Test system: cytokine-stimulated human umbilical vein endothelial cells
# Experiment: Cell Adhesion Assay: adherence of fluorescently-labelled leukocytes to endothelial cell monolayers
# Format: cell-based
# Details: inhibition of cytokine-stimulated adhesion minus basal adhesion; calcein-AM labelled leukocytes on HUVEC monolayers
# Protocol: The antiadhesion activity of compounds of the invention was determined using a modification of the previously described method, Jurgensen, C. H. et. al., J. Immunol. 144: 653-661. The adhesiveness of cytokine-stimulated human umbilical vein endothelial cells was assessed by quantitating the adherence of fluorescently-labelled (calcein-AM, Molecular Probes, Eugene, Oreg.) leukocytes to endothelial cell monolayers. Activity was determined by calculating inhibition of cytokine-stimulated adhesion minus the basal adhesion (unstimulated).
row,SMILES,IC50 [nM]
1,"COCCOCCOCCOCCOCCOCCOCCOCCOCCOC(=O)/C=C/c1ccc(-c2nc3c(=O)n(CC4CCCCC4)c(=O)n(CC4CCCCC4)c3[nH]2)cc1 [Example 35, (E)-4-[1,3-Bis(cyclohexylmethyl)-1,2,3,6-tetrahydro-2,6-dioxo-9H-purin-8-yl)cinnamic Acid Nonaethylene Glycol Methyl Ether Ester]",29 ± 3
2,"CCCn1c(=O)c2nc(-c3ccc(/C=C/C(=O)OCCOCCOCCOCCOCCOCCOCCOCCOCCOC)cc3)[nH]c2n(CCC)c1=O [Example 37, (E)-4-(1,3-bis(propyl)-1,2,3,6-tetrahydro-2,6-dioxo-9H-purin-8-yl)cinnamic Acid Nonaethylene Glycol Methyl Ether Ester]",98 ± 33
3,"COCCOCCOCCOCCOCCOCCOCCOCCOCCOC(=O)/C=C/c1ccc(-c2nc3c(=O)n(CC4CC4)c(=O)n(CC4CC4)c3[nH]2)cc1 [Example 38, (E)-4-(1,3-bis(cyclopropylmethyl)-1,2,3,6-tetrahydro-2,6-dioxo-9H-purin-8-yl)cinnamic Acid Nonaethylene Glycol Methyl Ether Ester]",150 ± 83
4,"CCCn1c(=O)c2nc(-c3cccc(/C=C/C(=O)OCCOCCOCCOCCOCCOCCOCCOCCOCCOC)c3)[nH]c2n(Cc2ccccc2)c1=O [Example 39, (E)-3-((1-propyl-3-benzyl)-1,2,3,6-tetrahydro-2,6-dioxo-9H-purin-8-yl)cinnamic Acid Nonaethylene Glycol Methyl Ether Ester]",130 ± 80
5,"COCCOCCOCCOCCOCCOCCOCCOCCOCCOC(=O)/C=C/c1ccc(-c2nc3c(=O)n(CC4CCCCCC4)c(=O)n(CC4CCCCCC4)c3[nH]2)cc1 [Example 40, (E)-4-(1,3-bis(cycloheptylmethyl)-1,2,3,6-tetrahydro-2,6-dioxo-9H-purin-8-yl)cinnamic Acid Nonaethylene Glycol Methyl Ether Ester]",14 ± 7
6,"COCCOCCOCCOCCOCCOCCOCCOCCOCCOC(=O)/C=C/c1ccc(-c2nc3c(=O)n(CCC4CCCCC4)c(=O)n(CCC4CCCCC4)c3[nH]2)cc1 [Example 41, (E)-4-(1,3-bis(2-cyclohexylethyl)-1,2,3,6-tetrahydro-2,6-dioxo-9H-purin-8-yl)cinnamic Acid Nonaethylene Glycol Methyl Ether Ester]",21 ± 12
7,"COCCOCCOCCOCCOCCOCCOCCOCCOCCOC(=O)/C=C/c1ccc(-c2nc3c(=O)n(-c4ccccc4)c(=O)n(-c4ccccc4)c3[nH]2)cc1 [Example 42, (E)-4-(1,3-bis(phenyl)-1,2,3,6-tetrahydro-2,6-dioxo-9H-purin-8-yl)cinnamic Acid Nonaethylene Glycol Methyl Ether Ester]",12 ± 12
8,"COCCOCCOCCOCCOCCOCCOCCOCCOCCOC(=O)/C=C/c1ccc(-c2nc3c(=O)n(CC(C)C)c(=O)n(CC(C)C)c3[nH]2)cc1 [Example 43, (E)-4-(1,3-bis(2-methylpropyl)-1,2,3,6-tetrahydro-2,6-dioxo-9H-purin-8-yl)cinnamic Acid Nonaethylene Glycol Methyl Ether Ester]",7.1 ± 2
9,"COCCOCCOCCOCCOCCOCCOCCOCCOCCOC(=O)/C=C/c1ccc(-c2nc3c(=O)n(CC4CC5CCC4C5)c(=O)n(CC4CC5CCC4C5)c3[nH]2)cc1 (stereo not shown) [Example 45, (E)-4-(1,3-bis(bicyclo(2.2.1)hept-2-ylmethyl)-1,2,3,6-tetrahydro-2,6-dioxo-9H-purin-8-yl)cinnamic Acid Nonaethylene Glycol Methyl Ether Ester]",42 ± 24
10,"COCCOCCOCCOCCOCCOCCOCCOCCOCCOC(=O)/C=C/c1cccc(-c2nc3c(=O)n(Cc4ccccc4)c(=O)n(Cc4ccccc4)c3[nH]2)c1 [Example 46, (E)-3-(1,3-bis(benzyl)-1,2,3,6-tetrahydro-2,6-dioxo-9H-purin-8-yl)cinnamic Acid Nonaethylene Glycol Methyl Ether Ester]",890 ± 420
11,"COCCOCCOCCOCCOCCOCCOCCOCCOCCOC(=O)/C=C/c1ccc(-c2nc3c(=O)n(C)c(=O)n(C)c3[nH]2)cc1 [Example 47, (E)-4-(1,3-bis(methyl)-1,2,3,6-tetrahydro-2,6-dioxo-9H-purin-8-yl)cinnamic Acid Nonaethylene Glycol Methyl Ether Ester]",710 ± 410
12,CCCCn1c(=O)n(CC2CCCCC2)c(=O)c2nc(-c3ccc(/C=C/C(=O)OCCOCCOCCOCCOCCOCCOCCOCCOCCOC)cc3)[nH]c21 [Example 48],< 0.1
13,"COCCOCCOCCOCCOCCOCCOCCOCCOCCOC(=O)/C=C/c1ccc(-c2nc3c(=O)n(Cc4ccccc4)c(=S)n(Cc4ccccc4)c3[nH]2)cc1 [Example 50, (E)-4-(1,3-bis(benzyl)-1,2,3,6-tetrahydro-2-thioxo-6-oxo-9H-purin-8-yl)cinnamic Acid Nonaethylene Glycol Methyl Ether Ester]",270 ± 150
14,"COCCOCCOCCOCCOCCOCCOCCOCCOCCOC(=O)/C=C/c1ccc(-c2nc3c(=O)n(C)c(=O)n(Cc4ccc(C#N)cc4)c3[nH]2)cc1 [Example 51, (E)-4-(1-methyl-3-(4-cyanobenzyl)-1,2,3,6-tetrahydro-2,6-dioxo-9H-purin-8-yl)cinnamic Acid Nonaethylene Glycol Methyl Ether Ester]",> 2000
15,"COCCOCCOCCOCCOCCOCCOCCOCCOCCOC(=O)/C=C/c1ccc(-c2nc3c(=O)n(C)c(=O)n(Cc4cccc(C#N)c4)c3[nH]2)cc1 [Example 52, (E)-4-(1-methyl-3-(3-cyanobenzyl)-1,2,3,6-tetrahydro-2,6-dioxo-9H-purin-8-yl)cinnamic Acid Nonaethylene Glycol Methyl Ether Ester]",410 ± 60
16,"COCCOCCOCCOCCOCCOCCOCCOCCOCCOC(=O)/C=C/c1ccc(-c2nc3c(=O)n(Cc4cccc(F)c4)c(=O)n(Cc4cccc(F)c4)c3[nH]2)cc1 [Example 53, (E)-4-(1,3-bis(3-fluorobenzyl)-1,2,3,6-tetrahydro-2,6-dioxo-9H-purin-8-yl)cinnamic Acid Nonaethylene Glycol Methyl Ether Ester]",39 ± 13
17,"COCCOCCOCCOCCOCCOCCOCCOCCOCCOC(=O)/C=C/c1ccc(-c2nc3c(=O)n(Cc4ccccc4F)c(=O)n(Cc4ccccc4F)c3[nH]2)cc1 [Example 54, (E)-4-(1,3-bis(2-fluorobenzyl)-1,2,3,6-tetrahydro-2,6-dioxo-9H-purin-8-yl)cinnamic Acid Nonaethylene Glycol Methyl Ether Ester]",76 ± 28
18,"COCCOCCOCCOCCOCCOCCOCCOCCOCCOC(=O)/C=C/c1ccc(-c2nc3c(=O)n(CCc4ccccc4)c(=O)n(CCc4ccccc4)c3[nH]2)cc1 [Example 55, (E)-4-(1,3-bis(2-phenylethyl)-1,2,3,6-tetrahydro-2,6-dioxo-9H-purin-8-yl)cinnamic Acid Nonaethylene Glycol Methyl Ether Ester]",51 ± 45
19,"COCCOCCOCCOCCOCCOCCOCCOCCOCCOC(=O)/C=C/c1ccc(-c2nc3c(=O)n(CC4CCCCC4)c(=O)n(C)c3[nH]2)cc1 [Example 56, (E)-4-((1-cyclohexylmethyl-3-methyl)-1,2,3,6-tetrahydro-2,6-dioxo-9H-purin-8-yl)cinnamic Acid Nonaethylene Glycol Methyl Ether Ester]",160 ± 70
20,COCCOCCOCCOCCOCCOCCOCCOCCOCCOC(=O)/C=C/c1ccc(-c2nc3c(=O)[nH]c(=O)n(CC(C)C)c3[nH]2)cc1 [Example 57],83 ± 41
21,"COCCOCCOCCOCCOCCOCCOCCOCCOCCOC(=O)/C=C/c1ccc(-c2nc3c(=O)n(Cc4ccc(F)cc4)c(=O)n(Cc4ccc(F)cc4)c3[nH]2)cc1 [Example 58, (E)-4-(1,3-bis(4-fluorobenzyl)-1,2,3,6-tetrahydro-2,6-dioxo-9H-purin-8-yl)cinnamic Acid Nonaethylene Glycol Methyl Ether Ester]",< 0.1
22,"CCCCCCCCCCCCOCCOCCOCCOCCOCCOCCOC(=O)/C=C/c1ccc(-c2nc3c(=O)n(CC4CCCCC4)c(=O)n(CC4CCCCC4)c3[nH]2)cc1 [Example 59, (E)-4-(1,3-bis(cyclohexylmethyl)-1,2,3,6-tetrahydro-2,6-dioxo-9H-purin-8-yl)cinnamic Acid Hexaethylene Glycol dodecyl Ether Ester]",57 ± 24
23,"CCCn1c(=O)c2nc(-c3cccc(/C=C/C(=O)OCCOCCOCCOCCOCCOCCOCCOCCOCCOC)c3)[nH]c2n(CCC)c1=O [Example 60, (E)-3-(1,3-bis(propyl)-1,2,3,6-tetrahydro-2,6-dioxo-9H-purin-8-yl)cinnamic Acid Nonaethylene Glycol Methyl Ether Ester]",> 1000
24,"COCCOCCOCCOCCOCCOCCOCCOCCOCCOC(=O)/C=C/c1ccc(-c2nc3c(=O)n(CC4CCC4)c(=O)n(CC4CCC4)c3[nH]2)cc1 [Example 61, (E)-4-(1,3-bis(cyclobutylmethyl)-1,2,3,6-tetrahydro-2,6-dioxo-9H-purin-8-yl)cinnamic Acid Nonaethylene Glycol Methyl Ether Ester]",11 ± 4
25,COCCOCCOCCOCCOCCOCCOCCOCCOCCOC(=O)/C=C/c1ccc(-c2nc3c(=O)n(C)c(=O)n(CC4CCCCC4)c3[nH]2)cc1 [Example 62],160 ± 85
26,"COCCOCCOCCOCCOCCOCCOCCOCCOCCOC(=O)/C=C/c1ccc(-c2nc3c(=O)n(C)c(=O)n(CC(C)C)c3[nH]2)cc1 [Example 63, (E)-4-(1-methyl-3-(2-methylpropyl)-1,2,3,6-tetrahydro-2,6-dioxo-9H-purin-8-yl)cinnamic Acid Nonaethylene Glycol Methyl Ether Ester]",55 ± 34
27,"COCCOCCOCCOCCOCCOCCOCCOCCOCCOC(=O)/C=C/c1ccc(-c2nc3c(=O)n(Cc4cccnc4)c(=O)n(Cc4cccnc4)c3[nH]2)cc1 [Example 64, (E)-4-(1,3-Bis(3-pyridinylmethyl)-1,2,3,6-tetrahydro-2,6-dioxo-9H-purin-8-yl)cinnamic Acid Nonaethylene Glycol Methyl Ether Ester]",> 1000
28,"COCCOCCOCCOCCOCCOCCOCCOCCOCCOC(=O)c1ccc(-c2nc3c(=O)n(CC4CCCCC4)c(=O)n(CC4CCCCC4)c3[nH]2)cc1 [Example 65, 4-(1,3-bis(cyclohexylmethyl)-1,2,3,6-tetrahydro-2,6-dioxo-9H-purin-8-yl)benzoic Acid Nonaethylene Glycol Methyl Ether Ester]",48 ± 19
